A short description of the data set: photoluminescence quantum yield (fraction); solvent given as SMILES.

Turning to `CCCCCCCCN1c2ccc(C#Cc3cc(C(F)(F)F)cc(C(F)(F)F)c3)cc2Sc2cc(C=O)ccc21`, the photoluminescence quantum yield reads like this: (in C1CCOC1) 0.53; (in CC#N) 0.53; (in CCCCCC) 0.6; (in CO) 0.11; (in CS(C)=O) 0.77; (in Cc1ccccc1) 0.67. The compound also displayed a photoluminescence quantum yield (in ClC(Cl)Cl) of 0.63.

As for `CCOC(=O)CN1C(=O)C2=C(c3ccc(N4CCCCC4)cc3)N(CC(=O)OCC)C(=O)C2=C1c1ccc(C#N)cc1`, the photoluminescence quantum yield reads like this: (in CC#N) 0.01; (in CS(C)=O) 0.001; (in Cc1ccccc1) 0.16.

Where the note is “in ClCCl”, `FC(F)(F)c1ccc(C#Cc2ncc(-c3ccccc3)o2)cc1` registered a photoluminescence quantum yield of 0.24. Where the note is “in ClCCl”, `CCN(CC)c1ccc2c(c1)oc(=O)c1c(=O)oc3cc(C#Cc4ccc(N(C)C)cc4)ccc3c12` gave a photoluminescence quantum yield of 0.04. Turning to `COCCN(CCOC)c1ccc(/C=C/c2sc3c4nc(C)sc4ccc3[n+]2C)cc1`, the photoluminescence quantum yield (in ClC(Cl)Cl) worked out at 0.05.

Turning to `C1=Cc2ccccc2C(=Cc2ccc(-c3cc(-c4ccc(C=C5c6ccccc6C=Cc6ccccc65)cc4)c(-c4ccc(C=C5c6ccccc6C=Cc6ccccc65)cc4)cc3-c3ccc(C=C4c5ccccc5C=Cc5ccccc54)cc3)cc2)c2ccccc21`, under “in C1CCOC1”, the photoluminescence quantum yield was 0.0016. `c1ccc2cc3cc4c(cc3cc2c1)-c1cccc2cccc-4c12`: the photoluminescence quantum yield (in CCCCCCC) came to 0.58. On to `CNc1ccc2nc3cc(Cl)c(Cl)cc3nc2c1`, for which the photoluminescence quantum yield (in CCO) came out at 0.06. The compound `c1ccc(-[c+]2c3ccccc3oc3ccccc32)cc1` showed a photoluminescence quantum yield (in CC#N) of 0.47. Consider `CCCCn1c(-c2ccc(-c3nnc(-c4ccc(-c5nc(-c6ccccc6)c(-c6ccccc6)n5CCCC)cc4)o3)cc2)nc(-c2ccccc2)c1-c1ccccc1`, for which, for the setting “in ClCCl”, the photoluminescence quantum yield turned out to be 0.69. Take `CCCn1c2cccc3oc4cccc5oc6cccc1c6[c+](c45)c32`: the photoluminescence quantum yield by setting is: (in CC#N) 0.49; (in CO) 0.54; (in ClCCl) 0.59; (in OCC(O)CO) 0.47. Compound `O=[N+]([O-])c1ccc([N+]2=Cc3ccc4ccccc4c3O[B-]2(F)F)cc1` yielded a photoluminescence quantum yield (in ClCCl) of 0.9. In turn, `Cn1nc(-c2ccccc2)cc1-c1ccccc1` had a photoluminescence quantum yield (in ClCCl) of 0.42. Regarding `c1ccc(-c2nc(-c3ccccc3)nc(-c3ccc(-n4c5ccccc5c5cc6c7ccccc7n7c8ccccc8c(c54)c67)cc3)n2)cc1`, for the setting “in O=P(c1ccccc1)(c1ccccc1)c1ccc2oc3ccc(P(=O)(c4ccccc4)c4ccccc4)cc3c2c1”, the photoluminescence quantum yield was found to be 0.68. As for `COc1cc(OC)cc(C2=[O+][B-](F)(F)OC(c3ccc4ccccc4c3)=C2)c1`, the photoluminescence quantum yield runs as follows: (in CC#N) 0.01; (in CC(C)=O) 0.01; (in CCCCCC) 0.19; (in Cc1ccccc1) 0.1; (in ClCCl) 0.05. For `COC(=O)c1cc(=O)n(C)c2cc(-c3ccc(N(C)C)cc3)sc12`, the photoluminescence quantum yield was determined as 0.08 (in CC#N) and 0.82 (in ClCCl). `COc1c2ccccc2c(OC)c2c1c1cccc(OC)c1n2C`: the photoluminescence quantum yield runs as follows: (in C1CCCCC1) 0.39; (in CC#N) 0.4; (in CO) 0.39; (in ClCCl) 0.44. As for `Cc1ccc2oc(-c3cc4cc(C)ccc4oc3=O)cc2c1`, for the setting “in CS(C)=O”, the photoluminescence quantum yield was 0.83.

Compound `N#Cc1nc(N(Cc2ccc(F)cc2)Cc2ccc(F)cc2)c(C#N)nc1N(Cc1ccc(F)cc1)Cc1ccc(F)cc1` gave a photoluminescence quantum yield (in ClC(Cl)Cl) of 0.76. As to `CCCCN(CCCC)c1ccc(/C=C/c2ccc3nc(/C=C/c4ccc(N(C)C)cc4)c(-c4ccccc4)nc3c2)cc1`, the photoluminescence quantum yield amounted to 0.44 (in C1COCCO1), 0.02 (in CC#N) and 0.24 (in ClCCl). Turning to `COc1ccc(-c2c3cc4ccccc4cc3c(C#Cc3ccccc3)c3cc4cc(C)sc4cc23)cc1`, the photoluminescence quantum yield (in ClCCl) is 0.45.

The compound `Cc1cc(C)c(C2=C3C=C(/C=C/C(=O)OC(C)(C)C)C=[N+]3[B-](F)(F)n3c2ccc3N2CCCC2)c(C)c1` showed a photoluminescence quantum yield (in ClCCl) of 0.57.

The values are drawn from the Deep4Chem optical property database.
